In ChEMBL document CHEMBL3588790, “Identification of p-hydroxybenzyl alcohol, tyrosol, phloretin and its derivate phloridzin as tyrosinase substrates” (Bioorg Med Chem, 2015):
Activity calls are given as the source filed them. The calls are words filed in the database; no cut-off is given here.

What was measured:
[1] = target: T1, Tyrosinase (Agaricus bisporus) (UniProt O42713); test: Activity at mushroom tyrosinase by spectrophotometric assay in presence of hydrogen peroxide
T1 sequence (whole entry): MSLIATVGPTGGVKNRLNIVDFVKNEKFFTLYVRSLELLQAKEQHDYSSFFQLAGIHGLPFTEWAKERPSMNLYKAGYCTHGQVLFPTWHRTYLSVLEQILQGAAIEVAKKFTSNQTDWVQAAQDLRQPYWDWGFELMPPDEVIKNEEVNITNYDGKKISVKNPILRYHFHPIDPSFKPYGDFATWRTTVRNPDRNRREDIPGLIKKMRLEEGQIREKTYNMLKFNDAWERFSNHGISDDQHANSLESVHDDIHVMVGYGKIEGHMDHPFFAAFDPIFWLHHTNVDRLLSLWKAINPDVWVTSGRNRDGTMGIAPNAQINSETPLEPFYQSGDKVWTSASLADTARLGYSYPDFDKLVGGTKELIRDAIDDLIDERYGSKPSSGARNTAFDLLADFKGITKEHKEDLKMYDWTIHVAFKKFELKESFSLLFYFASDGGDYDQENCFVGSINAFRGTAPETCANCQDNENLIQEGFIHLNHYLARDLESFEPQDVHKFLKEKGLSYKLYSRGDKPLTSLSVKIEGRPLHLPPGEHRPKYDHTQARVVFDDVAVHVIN

[2] = target: T1, Tyrosinase (Agaricus bisporus); test: Inhibition of monophenolase activity of mushroom tyrosinase using L-tyrosine as substrate at 0.05 mM by spectrophotometric assay
[3] = target: T1, Tyrosinase (Agaricus bisporus); test: Inhibition of monophenolase activity of mushroom tyrosinase using L-tyrosine as substrate at 0.1 mM by spectrophotometric assay
[4] = target: T1, Tyrosinase (Agaricus bisporus); test: Inhibition of monophenolase activity of mushroom tyrosinase using L-tyrosine as substrate at 0.2 mM by spectrophotometric assay
[5] = target: T1, Tyrosinase (Agaricus bisporus); test: Inhibition of diphenolase activity of mushroom tyrosinase using L-dopa as substrate at 0.05 mM by spectrophotometric assay
[6] = target: T1, Tyrosinase (Agaricus bisporus); test: Inhibition of diphenolase activity of mushroom tyrosinase using L-dopa as substrate at 0.1 mM by spectrophotometric assay
[7] = target: T1, Tyrosinase (Agaricus bisporus); test: Inhibition of diphenolase activity of mushroom tyrosinase using L-dopa as substrate at 0.2 mM by spectrophotometric assay
[8] = target: T1, Tyrosinase (Agaricus bisporus); test: Activity at mushroom tyrosinase assessed as decrease in absorbance at 475 nm using L-dopa as substrate by spectrophotometric assay in presence of sodium periodate
[9] = target: T1, Tyrosinase (Agaricus bisporus); test: Activity at mushroom tyrosinase assessed as decrease in absorbance using DOMA as substrate by oxygen consumption assay
[10] = target: T1, Tyrosinase (Agaricus bisporus); test: Activity at mushroom tyrosinase assessed as decrease in absorbance using L-tyrosine as substrate by oxygen consumption assay
[11] = target: T1, Tyrosinase (Agaricus bisporus); test: Activity at mushroom tyrosinase assessed as decrease in absorbance using L-dopa as substrate by oxygen consumption assay
[12] = target: T1, Tyrosinase (Agaricus bisporus); settings: 0.15 mM
Description: Inhibition of monophenolase activity of mushroom tyrosinase using L-tyrosine as substrate at 0.15 mM by spectrophotometric assay

[13] = target: T1, Tyrosinase (Agaricus bisporus); settings: 0.15 mM; remark: listed apart in the source
Description: Inhibition of diphenolase activity of mushroom tyrosinase using L-dopa as substrate at 0.15 mM by spectrophotometric assay

[14] = target: T1, Tyrosinase (Agaricus bisporus); test: Inhibition of diphenolase activity of mushroom tyrosinase using L-dopa as substrate at 0.5 mM by spectrophotometric assay
[15] = target: T1, Tyrosinase (Agaricus bisporus); test: Inhibition of diphenolase activity of mushroom tyrosinase using L-dopa as substrate at 1 mM by spectrophotometric assay
[16] = target: T1, Tyrosinase (Agaricus bisporus); test: Inhibition of diphenolase activity of mushroom tyrosinase using L-dopa as substrate at 1.5 mM by spectrophotometric assay
[17] = target: T1, Tyrosinase (Agaricus bisporus); test: Inhibition of monophenolase activity of mushroom tyrosinase using L-tyrosine as substrate at 3 mM by spectrophotometric assay
[18] = target: T1, Tyrosinase (Agaricus bisporus); test: Inhibition of monophenolase activity of mushroom tyrosinase using L-tyrosine as substrate at 6 mM by spectrophotometric assay
[19] = target: T1, Tyrosinase (Agaricus bisporus); test: Inhibition of monophenolase activity of mushroom tyrosinase using L-tyrosine as substrate at 9 mM by spectrophotometric assay
[20] = target: T1, Tyrosinase (Agaricus bisporus); test: Inhibition of diphenolase activity of mushroom tyrosinase using L-dopa as substrate at 3 mM by spectrophotometric assay
[21] = target: T1, Tyrosinase (Agaricus bisporus); test: Inhibition of diphenolase activity of mushroom tyrosinase using L-dopa as substrate at 6 mM by spectrophotometric assay
[22] = target: T1, Tyrosinase (Agaricus bisporus); test: Inhibition of diphenolase activity of mushroom tyrosinase using L-dopa as substrate at 9 mM by spectrophotometric assay

Which results are given for `O=C(CCc1ccc(O)cc1)c1c(O)cc(O)cc1O`?
Activity [1]: Active; inhibition [2]: 4.2%; inhibition [3]: 17.9%; inhibition [4]: 48.5%; inhibition [5]: 28.3%; inhibition [6]: 46.2%; inhibition [7]: 62.6%; Activity [8]: Active

How did the Activity [9] turn out when `O=C(CCc1ccc(O)cc1)c1c(O)cc(O)cc1O[C@@H]1O[C@H](CO)[C@@H](O)[C@H](O)[C@H]1O` was run?
Its Activity is “Active”.

What about the Activity [1] of the same compound?
Its Activity is “Active”.

And the inhibition [2]?
The inhibition was 9%.

What about the inhibition [3] of the same compound?
Its inhibition is 34%.

And the inhibition [5]?
Its inhibition is 31.4%.

And the inhibition [6]?
The inhibition was 45.3%.

What about the Activity [10] of the same compound?
Its Activity is “Active”.

And the Activity [11]?
The Activity was “Active”.

What about the inhibition [12] of the same compound?
The inhibition was 47.7%.

And the inhibition [13]?
The inhibition was 52.7%.

What does the source list for `OCCc1ccc(O)cc1`?
Activity [9]: Active; Activity [1]: Active; inhibition [14]: 14.3%; inhibition [15]: 18.7%; inhibition [16]: 18.3%; Activity [10]: Active; Activity [11]: Active

For `OCc1ccc(O)cc1`, which Activity [9] is on record?
The Activity was “Active”.

And the Activity [1]?
Its Activity is “Active”.

What about the inhibition [14] of the same compound?
The inhibition was 15.2%.

What about the inhibition [15] of the same compound?
Its inhibition is 28.4%.

What about the inhibition [16] of the same compound?
Its inhibition is 38.9%.

And the Activity [10]?
Its Activity is “Active”.

What about the Activity [11] of the same compound?
The Activity was “Active”.

For `O=C(O)Cc1ccccc1`, which inhibition [17] is on record?
The inhibition was 19.7%.

What about the inhibition [18] of the same compound?
The inhibition was 39.4%.

What about the inhibition [19] of the same compound?
The inhibition was 55.4%.

What about the inhibition [20] of the same compound?
Its inhibition is 18.2%.

What about the inhibition [21] of the same compound?
The inhibition was 41.6%.

What about the inhibition [22] of the same compound?
Its inhibition is 58.1%.
